For assay [1], the system named is Soleus muscle. Put plainly: Inhibition of 14C-glucose uptake in Wistar rat soleus muscle at 1 nM in presence of LY-294002. Format: functional, tissue-based.
Assay [2] relates to Soleus muscle. Put plainly: Inhibition of 14C-glucose uptake in Wistar rat soleus muscle at 1 nM in presence of RO318220. Format: functional, tissue-based.
Assay [3] has as its system Soleus muscle. The assay is described as follows: Stimulation of 14C-glucose uptake in Wistar rat soleus muscle at 1 nM in presence of PD-98059. The format is functional, tissue-based.
Assay [4] deals with Soleus muscle. Put plainly: Stimulation of 14C-glucose uptake in Wistar rat soleus muscle at 1 nM in presence of cycloheximide. Format: functional, tissue-based.
The test system of a further assay is Rattus norvegicus. Put plainly: Increase in glycogen level in diabetic Wistar rat soleus muscle at 100 mg/kg after 24 hrs. The format is functional.
Assay [5] is described as follows: Stimulation of 14C-glucose uptake in Wistar rat soleus muscle at 1 nM.
Assay [6] can be described thus: Stimulation of 14C-glucose uptake in Wistar rat soleus muscle at 100 nM.

SMILES strings stand for the structures. Activity calls are given as the source filed them. No cut-off for these calls is given here.

Consider `C[C@H]1O[C@H](O[C@H]2[C@H](Oc3c(-c4ccc(O)cc4)oc4cc(O)cc(O)c4c3=O)O[C@H](CO)[C@@H](O)[C@@H]2O)[C@@H](O)[C@@H](O)[C@@H]1O`, for which the result with Soleus muscle [1], with Soleus muscle [2], in the assay on Soleus muscle [3] and in the assay on Soleus muscle [4] was Active. Also, the Activity came to 380% in the assay on Rattus norvegicus, 35% in assay [5] and 21% in assay [6].

For the origin of these results see ChEMBL document CHEMBL1149856, “Insulinomimetic effect of kaempferol 3-neohesperidoside on the rat soleus muscle” (2008).
